Legend:
[1] = molecular target: T1, HSA (Homo sapiens, UniProt P02768); assay: previous NMR measurement of the low affinity second binding site for Trp; conditions: 20° C., measured previously by NMR
Source text: […]. J., 273, 641-644 (1991)) is somewhat larger. This small difference can probably be ascribed to the presence of a low affinity second binding site for Trp. […] Despite this complication, the values that are rapidly derived from the NMR screening experiments serve for most of the purposes in the early stages of drug discovery.

[2] = molecular target: T1, HSA; conditions: 20° C.; read-out: KD^(a) binding constant of L-Trp measured with equilibrium dialysis; cited from earlier work
[3] = molecular target: T2, HSA (Sudlow site I) (Homo sapiens, UniProt P02768); assay: doubly-selective R1-filtered and spin-echo 1H NMR competition binding, spy molecule warfarin; conditions: 25 μM, HSA 0 to 2.5 μM
T2 construct: Fatty acid free human serum albumin (A-3782) was purchased from Sigma and used without further purification; purchased Sigma A-3782

[4] = molecular target: T1, HSA; conditions: up to concentration of several hundred μM; cited from earlier work

T1 sequence (P02768 25-609): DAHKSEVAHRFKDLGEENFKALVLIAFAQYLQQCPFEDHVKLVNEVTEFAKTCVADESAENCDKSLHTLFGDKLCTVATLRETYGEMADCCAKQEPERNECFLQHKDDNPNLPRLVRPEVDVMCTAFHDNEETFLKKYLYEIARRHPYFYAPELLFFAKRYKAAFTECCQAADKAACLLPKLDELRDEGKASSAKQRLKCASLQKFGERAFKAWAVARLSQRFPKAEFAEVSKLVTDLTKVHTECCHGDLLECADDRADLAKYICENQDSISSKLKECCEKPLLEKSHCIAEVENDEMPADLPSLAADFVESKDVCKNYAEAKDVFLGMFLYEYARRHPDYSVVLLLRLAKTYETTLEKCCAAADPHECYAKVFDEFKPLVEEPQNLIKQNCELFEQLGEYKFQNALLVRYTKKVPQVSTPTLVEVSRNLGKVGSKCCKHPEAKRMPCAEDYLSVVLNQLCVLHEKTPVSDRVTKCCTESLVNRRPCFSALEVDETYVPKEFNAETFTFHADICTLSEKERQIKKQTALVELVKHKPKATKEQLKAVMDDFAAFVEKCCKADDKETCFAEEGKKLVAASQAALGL
T2 sequence (P02768 25-609): as above

affinity for the low affinity second binding site [1] | binding of the control molecule to HSA (signal intensity as a function of protein concentration) [3] | Compound | Kd [2] [µM] | interaction with HSA [4]
several hundreds |  | N[C@@H](Cc1c[nH]c2ccccc12)C(=O)O [Trp, tryptophan] | 23 | 
 | does not bind | Cc1ccc2[nH]cc(CC(N)C(=O)O)c2c1 (stereo not shown) [5-CH3 D,L Trp (2), 5-CH3 D,L Trp] |  | does not interact with HSA

Source: patent US7470543B2, “Methods for identifying ligands using competitive binding 1H NMR experiments” (Nerviano Medical Sciences S.r.l., priority 2002, dated 2008)
